{
  "source": "BindingDB's records for doi:10.1021/jm00020a011",
  "about": "(Zeneca Pharmaceuticals, 1995)",
  "assay": "Binding affinity towards Acetylcholinesterase",
  "data": [
    {"smiles": "CC(C)[C@H](NC(=O)[C@@H]1CCCN1C(=O)[C@@H](NC(=O)c1ccc(C(=O)NS(=O)(=O)c2ccc(Cl)cc2)cc1)C(C)C)C(=O)c1nc2cc(C(N)=O)ccc2o1", "note": "[2-{(S)-2-[((S)-1-{(S)-2-[4-(4-Chloro-benzenesulfonylaminocarbonyl)-benzoylamino]-3-methyl-butyryl}-pyrrolidine-2-carbonyl)-amino]-3-methyl-butyryl}-benzooxazole-5-carboxylic acid amide]", "values": [
      {"measurement": "Ki", "value": "> 2000", "unit": "µM"}
    ]}
  ]
}
